Assay results published in patent US20160296529A1, “AMINOTRIAZOLOPYRIDINE FOR USE IN THE TREATMENT OF INFLAMMATION, AND PHARMACEUTICAL COMPOSITIONS THEREOF” (priority 2012, published 2016).

Assays:
[1] = Single dose pharmacokinetics in animals, mouse; format: in vivo, CD1 mice; conditions: for AUC: read-out: exposure (expressed as AUC)
Protocol: Pharmacokinetic studies were performed in various animal species dosed with the compound according to Formula II to determine the exposure to the compound according to Formula I as well as its apparent terminal half life (T1/2), when possible.
Sprague-Dawley rats (male, 200-250 g), CD1 mice (male, 25-30 g), Beagle dogs (male, 9-10 kg), Göttingen minipigs (male, 10-15 kg) and New Zealand White rabbits (male, 3-5 kg) were acclimatized for at least 7 days before treatment and were kept on a 12 hr light/dark cycle (07 h00-19 h00).
Temperature was maintained at approximately 22° C., and food and water were provided ad libitum.
The compound according to Formula II was formulated in 0.5% methylcellulose and dosed orally to 3 animals (or 3 mouse/time points) as a single esophageal gavage at dose ranging from 15 to 45 mg/kg under a dosing volume of 5 or 10 mL/kg.
Blood samples were collected over a 24-h period via the jugular vein (dog, minipig), ear blood vessel (rabbit), cardiac puncture (mouse) or retro-orbital sinus (rat) with lithium heparin as anti-coagulant. Whole blood samples were centrifuged and the resulting plasma samples were stored at −20° C. pending analysis.
Plasma concentrations of the compound according to Formula I and of the compound according to Formula II were determined by an LC-MS/MS method with a limit of quantification ≦10.0 ng/mL for both Formula I and Formula II for all species.
Pharmacokinetic parameters were calculated using a statistical analysis package (WinNonLin (Pharsight, Sunnyvale, Calif.: CA 94086, USA).

[2] = Target inhibition: circulating levels in healthy volunteers as multiples of whole blood assay IC50; format: in vivo, human
Protocol: The compound according to Formula II was dosed daily in healthy volunteers at 200 mg QD and 100 mg BID.
The resulting levels of Formula II and Formula I were then measured and plotted (FIG. 5) as multiples of their respective IC50 as determined by the Whole Blood assay described above in Example 3.4.

hepatocytes of dog = assay: In vitro metabolism study in hepatocytes, dog; format: in vitro ADME; conditions: dog hepatocyte suspension, 24 h incubation of 100 μM [14C]-Formula II
Protocol: Hepatocyte stability (Concentrations of the compound according to Formula II and its main metabolites (as % of total radioactivity) after 24 h incubation of 100 μM [^14C]-Compound according to Formula II in hepatocyte suspension of different species)

[3] = male, CD1, plasma, after Formula II 30 mg/kg oral
[4] = Formula II at 100 mg BID, time point 0 h
[5] = Formula II at 100 mg BID, time point 0.5 h
[6] = Formula II at 100 mg BID, time point 1 h
[7] = Formula II at 100 mg BID, time point 2 h
[8] = Formula II at 100 mg BID, time point 3 h
[9] = Formula II at 100 mg BID, time point 5 h
[10] = Formula II at 100 mg BID, time point 8 h
[11] = Formula II at 100 mg BID, time point 12 h
[12] = Formula II at 100 mg BID, time point 12.5 h
[13] = Formula II at 100 mg BID, time point 13 h
[14] = Formula II at 100 mg BID, time point 14 h
[15] = Formula II at 100 mg BID, time point 15 h
[16] = Formula II at 100 mg BID, time point 17 h
[17] = Formula II at 100 mg BID, time point 20 h
[18] = Formula II at 100 mg BID, time point 24 h
[19] = Formula II at 200 mg QD, time point 0 h
[20] = Formula II at 200 mg QD, time point 0.5 h
[21] = Formula II at 200 mg QD, time point 1 h
[22] = Formula II at 200 mg QD, time point 2 h
[23] = Formula II at 200 mg QD, time point 3 h
[24] = Formula II at 200 mg QD, time point 5 h
[25] = Formula II at 200 mg QD, time point 8 h
[26] = Formula II at 200 mg QD, time point 24 h

Row | AUC [1, 3] | Ratio [blood circulating dose]/[circulating dose at IC50 quantity] [2, 4] | Ratio [blood circulating dose]/[circulating dose at IC50 quantity] [2, 5] | Ratio [blood circulating dose]/[circulating dose at IC50 quantity] [2, 6] | Ratio [blood circulating dose]/[circulating dose at IC50 quantity] [2, 7] | Ratio [blood circulating dose]/[circulating dose at IC50 quantity] [2, 8] | Ratio [blood circulating dose]/[circulating dose at IC50 quantity] [2, 9] | Ratio [blood circulating dose]/[circulating dose at IC50 quantity] [2, 10] | Ratio [blood circulating dose]/[circulating dose at IC50 quantity] [2, 11] | Ratio [blood circulating dose]/[circulating dose at IC50 quantity] [2, 12] | Ratio [blood circulating dose]/[circulating dose at IC50 quantity] [2, 13] | Ratio [blood circulating dose]/[circulating dose at IC50 quantity] [2, 14] | Ratio [blood circulating dose]/[circulating dose at IC50 quantity] [2, 15] | Ratio [blood circulating dose]/[circulating dose at IC50 quantity] [2, 16] | Ratio [blood circulating dose]/[circulating dose at IC50 quantity] [2, 17] | Ratio [blood circulating dose]/[circulating dose at IC50 quantity] [2, 18] | Ratio [blood circulating dose]/[circulating dose at IC50 quantity] [2, 19] | Ratio [blood circulating dose]/[circulating dose at IC50 quantity] [2, 20] | Ratio [blood circulating dose]/[circulating dose at IC50 quantity] [2, 21] | Ratio [blood circulating dose]/[circulating dose at IC50 quantity] [2, 22] | SMILES | further results
1 | 11400 ng·h/mL | 0.97 | 0.93 | 0.88 | 0.97 | 1.00 | 1.13 | 0.96 | 0.86 | 0.93 | 0.88 | 0.97 | 1.00 | 1.13 | 0.96 | 0.86 | 0.69 | 0.65 | 0.69 | 0.84 | Nc1nc2cccc(-c3ccc(CN4CCS(=O)(=O)CC4)cc3)n2n1 [Formula I, 5-[4-(1,1-Dioxothiomorpholin-4-ylmethyl)-phenyl]-[1,2,4]triazolo[1,5-a]pyridin-2-ylamine] | Ratio I/II of exposure (AUC Formula I : AUC Formula II) ([1]; after Formula II 30 mg/kg oral): 1.56; half-life ([1]; male, CD1, plasma, oral, upon administration of Formula II, read-out: apparent terminal elimination half-life (converted)): 2.1 h; Ratio [blood circulating dose]/[circulating dose at IC50 quantity] [2, 23]: 0.96; Ratio [blood circulating dose]/[circulating dose at IC50 quantity] [2, 24]: 1.00; Ratio [blood circulating dose]/[circulating dose at IC50 quantity] [2, 25]: 0.93; Ratio [blood circulating dose]/[circulating dose at IC50 quantity] [2, 26]: 0.84; In vitro metabolic profile of Formula II (as % of total radioactivity) (hepatocytes of dog): 5.7%
2 | 7300 ng·h/mL | 0.09 | 0.12 | 0.48 | 1.28 | 1.71 | 0.88 | 0.26 | 0.09 | 0.12 | 0.48 | 1.28 | 1.71 | 0.88 | 0.26 | 0.09 | 0.02 | 0.46 | 3.14 | 3.88 | O=C(Nc1nc2cccc(-c3ccc(CN4CCS(=O)(=O)CC4)cc3)n2n1)C1CC1 [Formula II, Cyclopropanecarboxylic acid {5-[4-(1,1-dioxo-thiomorpholin-4-ylmethyl)-phenyl]-[1,2,4]triazolo[1,5-a]pyridin-2-yl}-amide] | Ratio [blood circulating dose]/[circulating dose at IC50 quantity] [2, 23]: 3.16; Ratio [blood circulating dose]/[circulating dose at IC50 quantity] [2, 24]: 1.31; Ratio [blood circulating dose]/[circulating dose at IC50 quantity] [2, 25]: 0.36; Ratio [blood circulating dose]/[circulating dose at IC50 quantity] [2, 26]: 0.11; In vitro metabolic profile of Formula II (as % of total radioactivity) (hepatocytes of dog): at least 80%; In vitro metabolic profile of Formula II (as % of total radioactivity) (hepatocytes of dog; listed as drawing 10): 93%
